Holding throughout (assay): NCI-60 cell line screen, 48 h
Assay [1] concerns 786-0.
The test system of assay [2] is T47D.
The subject of assay [3] is MDA-MB-231.
Assay [4] deals with SF-539.
For assay [5], the system named is Hs-578T.
In assay [6] the test system is MDA-N.
The subject of assay [7] is A498.
Assay [8] relates to MCF7.
The subject of assay [9] is DU-145.
Assay [10] concerns HT-29.
Assay [11] has as its system TK-10.
Assay [12] has as its system BT-549.
Assay [13] deals with LOX IMVI.
Assay [14] relates to SR.
For assay [15], the system named is NCI-H522.

Structures are written as SMILES.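 Dose response: 5 concentrations. Exposure: 48 h. Format: 96-well plates. Endpoint: linear interpolation; highest concentration if not reached. GI50 = concentration required for 50% inhibition of growth.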 The source made the active and inactive calls. Cut-off read from the data, not from the text of the source: active = GI50 up to about 1.1 µM and inactive = higher.

As to `CCOC(=O)c1c(N=C(S)Nc2ccccc2)sc2c1CCN(C)C2`, the GI50 in [1], in [2], in assay [3], in [4], in [5] and in assay [6] was > 100 µM (inactive) each time. Also, the GI50 in assay [7], in [8], in assay [9], in assay [10], in assay [11] and in [12] was > 100 µM (inactive) throughout.

As to `Cc1ccc(S(=O)(=O)N2c3ccccc3[C@H]3CCc4c([nH]c5ccccc45)[C@H]32)cc1`, the GI50 in [2] is > 100 µM (inactive); in [3] it was 0.65 µM (active); in [4] it was 27.7 µM (inactive); in assay [6] it was 30 µM (inactive); in assay [13] it was > 100 µM (inactive); in assay [8] it was > 100 µM (inactive). Besides, the GI50 in assay [9], in assay [10], in assay [11] and in [12] was > 100 µM (inactive) in each case.

Consider `Cc1ccc(/N=N/C(=N\NC(=O)c2ccc(C)cc2)c2ccc(N(CCC#N)CCC#N)cc2C)cc1`, for which the GI50 in assay [2] is 49.7 µM (inactive); in assay [3], 57.9 µM (inactive); in assay [4] it was 13.7 µM (inactive); in assay [5], 16.4 µM (inactive); in [6], 29.7 µM (inactive); in [13], 35.7 µM (inactive). Further, the GI50 in assay [7] is > 100 µM (inactive); in assay [8], 31 µM (inactive); in assay [9] it was 57.8 µM (inactive); in assay [10] it was 19.4 µM (inactive); in assay [11] it was 45.5 µM (inactive); in [14] it was 18.7 µM (inactive).

As for `O=C(N/N=C/c1ccccc1)c1c(F)c(F)c(F)c(F)c1F`, the GI50 was > 100 µM (inactive) in assay [2]; > 100 µM (inactive) in [3]; 67 µM (inactive) in assay [4]; > 100 µM (inactive) in assay [5]; 28.8 µM (inactive) in [6]; 23.3 µM (inactive) in [15]. For the same compound, the GI50 was > 100 µM (inactive) in [13]; > 100 µM (inactive) in [7]; > 100 µM (inactive) in [9]; 54.2 µM (inactive) in [10]; > 100 µM (inactive) in [11]; > 100 µM (inactive) in assay [12]. Moreover, the GI50 in [14] was > 100 µM (inactive).

In the case of `COc1ccc(-c2c3c(nc4nc(SCCc5ccccc5)nc(N)c24)CCCC3)cc1OC`, the GI50 was > 100 µM (inactive) in [2]; > 100 µM (inactive) in [3]; 85.7 µM (inactive) in assay [4]; 27 µM (inactive) in assay [5]; > 100 µM (inactive) in assay [6]; > 100 µM (inactive) in [13]. The GI50 in [8], in [9], in assay [10], in assay [11], in [12] and in [14] was > 100 µM (inactive) throughout.

For `CCOC(=O)c1cc(C2CCN(Cc3ccccc3)C2=S)c(C(=O)C=[N+]=[N-])[nH]1` (centres undefined), the GI50 in assay [1] is 28.1 µM (inactive); in assay [3], 33.1 µM (inactive); in [5], 45.6 µM (inactive); in assay [6], 21.1 µM (inactive); in [15], 20.7 µM (inactive); in [7] it was 77.4 µM (inactive). Further, the GI50 is 14.6 µM (inactive) in [8]; 33.4 µM (inactive) in assay [9]; 31.5 µM (inactive) in assay [10]; 35.9 µM (inactive) in [11]; 26.9 µM (inactive) in assay [12].

In the case of `N#CCc1c(F)c(F)c(F)c(F)c1F`, the GI50 in assay [1], in assay [2], in [3], in assay [4], in assay [5] and in assay [6] was > 100 µM (inactive) throughout. The GI50 in assay [15], in assay [13], in assay [7], in assay [8], in assay [9] and in assay [10] was > 100 µM (inactive) throughout. The GI50 in [11], in [12] and in assay [14] was > 100 µM (inactive) each time.

As to `CC1CC/C(=C\c2ccc(Cl)cc2)C(=O)/C1=C\c1ccc(Cl)cc1` (centres undefined), the GI50 in [1] was 34.1 µM (inactive); in assay [2], 58.9 µM (inactive); in assay [3] it was 28.4 µM (inactive); in assay [5], 36.8 µM (inactive); in assay [6] it was 51.2 µM (inactive); in [13], 31.8 µM (inactive). The GI50 in assay [7] was 1.63 µM (inactive); in [8], 36.2 µM (inactive); in [9], 49.2 µM (inactive); in assay [10], 30.9 µM (inactive); in [11] it was 29.1 µM (inactive); in assay [12] it was 29.9 µM (inactive).

On to `CC1CN=C(N(C(=O)Nc2ccccc2)C2CCCCC2)S1` (centres undefined), for which the GI50 in [1] is 17.3 µM (inactive); in [2], 17.7 µM (inactive); in assay [3], 15.4 µM (inactive); in assay [4] it was 22.4 µM (inactive); in assay [5], 20.7 µM (inactive); in assay [6] it was 15.6 µM (inactive). The GI50 was 13.5 µM (inactive) in assay [13]; 14.4 µM (inactive) in assay [7]; 16.6 µM (inactive) in assay [8]; 25.5 µM (inactive) in assay [9]; 17 µM (inactive) in assay [10]; 16.7 µM (inactive) in assay [11]. In addition, the GI50 in [14] was 15.9 µM (inactive).

Take `O=C1C[C@H](Sc2ccccc2)C2(OCCO2)[C@@H](Sc2ccccc2)C1`: the GI50 in assay [1] is 2.82 µM (inactive); in assay [2], 5.13 µM (inactive); in [3] it was 1.64 µM (inactive); in assay [4] it was 0.998 µM (active); in assay [5] it was 1.77 µM (inactive); in assay [6], 2.2 µM (inactive). Besides, the GI50 in assay [15] is 0.316 µM (active); in assay [13] it was 0.7 µM (active); in assay [7] it was 15.1 µM (inactive); in [8] it was 1.17 µM (inactive); in assay [9] it was 3.19 µM (inactive); in assay [10] it was 1.64 µM (inactive). For the same compound, the GI50 was 1.95 µM (inactive) in assay [11], 1.97 µM (inactive) in [12] and 0.322 µM (active) in assay [14].

For the compound `CC[C@]12C=CCN3CC[C@@]4(c5cc(Br)c(OC)c([N+](=O)[O-])c5N(C)[C@H]4[C@@](O)(C(=O)OC)[C@@H]1OC(C)=O)[C@@H]32`, the GI50 in [1] was 94.6 µM (inactive); in [2], 50.4 µM (inactive); in [3], > 100 µM (inactive); in assay [4], > 100 µM (inactive); in assay [5] it was 36.1 µM (inactive); in [6], 37.2 µM (inactive). The GI50 in [13] is 34.6 µM (inactive); in assay [7], 44.5 µM (inactive); in assay [8] it was 37.4 µM (inactive); in [9], 98.2 µM (inactive); in assay [10], > 100 µM (inactive); in [11], > 100 µM (inactive). Besides, the GI50 in [12] was > 100 µM (inactive); in assay [14] it was 25.7 µM (inactive).

As for `OCCCC(O)(c1ccccc1)c1ccccc1`, the GI50 in assay [1], in assay [4], in assay [5], in assay [15], in [13] and in assay [8] was > 100 µM (inactive) throughout. In addition, the GI50 in [10], in [11], in [12] and in assay [14] was > 100 µM (inactive) in each case.

As for `Cc1ccc(NC(=O)C(Cc2c[nH]c3ccccc23)NC(=O)Oc2ccccc2)cc1C` (centres undefined), the GI50 in [2] was 39.5 µM (inactive); in assay [3], > 100 µM (inactive); in [4] it was > 100 µM (inactive); in [5], 38.3 µM (inactive); in assay [6] it was 55.8 µM (inactive); in [15], > 100 µM (inactive). The GI50 was 47.9 µM (inactive) in [13]; 27.4 µM (inactive) in assay [7]; 41.2 µM (inactive) in [8]; > 100 µM (inactive) in assay [9]; 41.3 µM (inactive) in [10]; 0.728 µM (active) in [11]. Moreover, the GI50 in assay [12] is 30.6 µM (inactive).

Regarding `Cc1cc2cc3c(C)cc(=O)oc3c(C)c2o1` [TRIOXSALEN], the GI50 in assay [1], in assay [2], in assay [3], in assay [4], in assay [5] and in assay [6] was > 100 µM (inactive) in each case. Also, the GI50 in [15], in [13], in assay [7], in [8], in [9] and in assay [10] was > 100 µM (inactive) throughout. For the same compound, the GI50 in assay [12] and in [14] was > 100 µM (inactive) each time.

As for `CCOC(=O)NC(OCc1ccccc1)(C(=O)OC)C(F)(F)F` (centres undefined), the GI50 in assay [2], in assay [3], in [4], in [5], in assay [6] and in [15] was > 100 µM (inactive) each time. Also, the GI50 in assay [13], in [8], in assay [9], in assay [10], in [11] and in [12] was > 100 µM (inactive) each time. In addition, in [14], the GI50 is > 100 µM (inactive).
